According to patent US20160317391A1, “MEDIA MILLING PROCESS FOR THE MANUFACTURE OF ACTIVE PHARMACEUTICAL INGREDIENTS IN PROPELLANTS” (MERCK SHARP & DOHME CORP., priority 2013, published 2016):
Values joined by “and” are separate entries in the source; they are usually repeats but may differ in a detail not shown here. Equal entries are not always repeated.

Assays:
[1] = DSC thermograms of unmilled and HFA-LabRAM milled material (solid state); format: physicochemical; settings: milled versus unmilled material
Description: With respect to the examples below, the milled API was subject to DSC and the thermograms compared to that of the neat unmilled API. The data from the thermograms clearly indicate that the RAM based HFA-milled API maintains its crystalline structure (FIG. 2B). It was also confirmed that the RAM milling process minimized the undesirable amorphous material generation during milling.

[2] = Particle size distribution (X50, X90) before and after HFA-LabRAM media milling, […] particle size analyzer; format: physicochemical; settings: for particle size (X50) prior to HFA-based RAM milling: unmilled; for X50 after RAM-milling: grades ML001 and SV003; for PSD after HFA Milling X50 / PSD after HFA Milling X90: 80% power
Experimental: In a typical RAM based media milling process (see FIG. 1), API is added to a glass bottle along with Yttria zirconia (YTZ, diameters ranging from about 0.1 to about 2 mm) beads. Preferred bead sizes are from about 0.05 to about 5 mm. Another preferred bead size is from about 0.1 to about 2 mm. Other components that can be added to the API-bead mixture include stabilizers and surfactants that can augment the milling process. The ratio of the beads to that of the formulation components can be varied to suit the needs of particle size requirements. Particularly preferred ratios of beads to formulation components are from 40:1, 20:1, 15:1, 10:1 and 5:1. The bottle is crimp sealed and filled with appropriate amounts of either HFA227 or HFA134a (or a combination of both at varying ratios). The bottle is then loaded onto a RAM device and milled for a specified duration of time and at a specified power. Milling times include between about 5 minutes to about 300 minutes. Preferred milling times are from about 30 minutes to about 200 minutes and 60 minutes to about 120 minutes. Power includes about 10% to about 100% power. Preferred power range is about 40% to about 100%. Further, preferred power range is about 75% to about 100%. In most cases, the process can proceed to completion without stoppage. However, because of the ease and simplicity of the process, the process flow can be readily altered by stopping the media milling at intermittent time points for a known period of time before restarting the process again. This may be performed to cool the contents of the bottle at regular intervals. After completion, the bottle is allowed to revert to room temperature (if needed) to rapidly vent the HFA. After the process is finished the contents of the bottle (API, any excipients and/or additives, and the beads) are then added to a sieve of appropriate mesh size to separate the beads and the API. The milled API is collected and stored at 0% RH (in a nitrogen glove box) for further use.
GP was milled utilizing LabRAM in both HFA134a and HFA227. The milling was accomplished at different parameters of solids ratio, milling duration and power. YTZ beads ([…]) were utilized.
Lactose is an excipient that is FDA approved and is utilized as a carrier in dry powder inhalers. In one variation of the milling study, β-lactose (anhydrous) purchased from sigma-aldrich was subjected to HFA (HFA227) based media milling using LabRAM at a preset power of 80% and for a duration of 70 minutes. The ratio of YTZ beads ([…]) to β-lactose was maintained at 20:1. Particle size (X50) of β-lactose prior to HFA-based RAM milling was 153.6±7.4 μm. Upon subjecting the unmilled lactose to RAM-milling under the aforementioned conditions, the particle size (X50) of β-lactose was 3.47±0.01 μm.

[3] = HFA227, 60 mins, API:Bead ratio (w/w) 20, in µm (unit assumed)
[4] = HFA227, 86 min, API:Bead ratio (w/w) 20, in µm (unit assumed)
[5] = HFA227, 90 min, 5 min stop @45, 10 min stop, 90% power for additional 3 mins, API:Bead ratio (w/w) 20, in µm (unit assumed)
[6] = HFA227, 90 min, 5 min stop @45, API:Bead ratio (w/w) 10, in µm (unit assumed)
[7] = HFA227, 105 mins, API:Bead ratio (w/w) 20, in µm (unit assumed)
[8] = unmilled GP, in µm (unit assumed)

C[N+]1(C)CCC(OC(=O)C(O)(c2ccccc2)C2CCCC2)C1.[Br-] (centres unmarked) [HFA-LabRAM milled GP, glycopyrrolate bromide]
particle size (X50) at start of storage (75% RH and 25° C. study, initial value): 1.54 μm | particle size (X50) after storage (75% RH and 25° C., within a span of 24 h): 1.78 μm | increase in PSD (75% RH and 40° C., within 20 h): 0.5 μm

C[N+]1(C)CCC(OC(=O)C(O)(c2ccccc2)C2CCCC2)C1.[Br-] (centres unmarked) [jet milled GP, glycopyrrolate bromide]
time within which X50 / particle size doubles (75% RH and 40° C.): ≤ 6 h | particle size shown at 24 h (visual observation) (75% RH and 40° C., 24 h, visual observation, […]): 10 μm | increase in the size of the API (75% RH and 40° C., within 24 h): 100 fold

OC[C@H]1O[C@@H](O[C@H]2[C@H](O)[C@@H](O)[C@H](O)O[C@@H]2CO)[C@H](O)[C@@H](O)[C@H]1O [β-lactose]
solid state after HFA-LabRAM milling (DSC) [1]: crystalline | solid state after HFA-LabRAM milling (DSC) ([1]; listed as lactose): no glass transition | particle size (X50) of the recovered product ([2]; HFA134a, bead to lactose ratio 40:1, 60 minute duration): 2.3 μm | particle size (X50) after RAM-milling ([2]; HFA227, power 80%, 70 minutes, YTZ beads to β-lactose 20:1): 3.47±0.01 μm | particle size (X50) prior to HFA-based RAM milling [2]: 153.6±7.4 μm

O.OC[C@H]1O[C@@H](O[C@H]2[C@H](O)[C@@H](O)C(O)O[C@@H]2CO)[C@H](O)[C@@H](O)[C@H]1O (some centres unmarked) [Lactose monohydrate]
X50 after RAM-milling ([2]; HFA134a, similar conditions): 1.9 μm | X50 after RAM-milling ([2]; HFA227): less than 3 μm

C[N+]1(C)CCC(OC(=O)C(O)(c2ccccc2)C2CCCC2)C1 (centres unmarked) [GP, glycopyrrolate bromide]
solid state after HFA-LabRAM milling (DSC) [1]: no change in the polymorphic state | X50 after LabRAM milling, all cases ([2]; HFA134a and HFA227, different solids ratio, milling duration and power, YTZ beads): less than 3 μm | average X50 after LabRAM milling ([2]; HFA134a, increased solids ratio): 1.5 μm | PSD after HFA Milling X50 [2, 3]: 3.49 ± 0.02 | PSD after HFA Milling X90 [2, 3]: 15.93 ± 0.14 | PSD after HFA Milling X50 [2, 4]: 1.7 | PSD after HFA Milling X90 [2, 4]: 4.53 ± 0.21 | PSD after HFA Milling X50 [2, 5]: 1.37 ± 0.13 | PSD after HFA Milling X90 [2, 5]: 3.67 ± 0.03 | PSD after HFA Milling X50 [2, 6]: 1.7 and 1.53 ± 0.06 | PSD after HFA Milling X90 [2, 6]: 3.87 ± 0.12 and 3.67 ± 0.06 | PSD after HFA Milling X50 [2, 7]: 2.62 ± .01 | PSD after HFA Milling X90 [2, 7]: 9.83 ± 0.01 | particle size (X50) prior to HFA-based RAM milling [2]: ca. 51 μm | PSD before HFA Milling X50 [2, 8]: 52.77 ± 1.55 and 52.77 ± 1.56 and 52.77 ± 1.57 and 52.77 ± 1.54 | PSD before HFA Milling X90 [2, 8]: 134.7 ± 9.10 and 134.7 ± 9.11 and 134.7 ± 9.12 and 134.7 ± 9.9
